# Target: T1, recombinant human PAI-1 (Homo sapiens, UniProt P05121)
# T1 construct: purchased Molecular Innovations, Inc
# Assay: Test Example 1: human PAI-1 inhibitory activity (tPA fluorogenic substrate, pH 7.5 Tris buffer)
# Assay type: biochemical
# Details: Tris buffer
# Procedure: 50 mM Tris, 150 mM NaCl, 10 μg/ml BSA, 0.01% Tween80 (SIGMA-ALDRICH Corporation)
# T1 sequence (P05121 24-402): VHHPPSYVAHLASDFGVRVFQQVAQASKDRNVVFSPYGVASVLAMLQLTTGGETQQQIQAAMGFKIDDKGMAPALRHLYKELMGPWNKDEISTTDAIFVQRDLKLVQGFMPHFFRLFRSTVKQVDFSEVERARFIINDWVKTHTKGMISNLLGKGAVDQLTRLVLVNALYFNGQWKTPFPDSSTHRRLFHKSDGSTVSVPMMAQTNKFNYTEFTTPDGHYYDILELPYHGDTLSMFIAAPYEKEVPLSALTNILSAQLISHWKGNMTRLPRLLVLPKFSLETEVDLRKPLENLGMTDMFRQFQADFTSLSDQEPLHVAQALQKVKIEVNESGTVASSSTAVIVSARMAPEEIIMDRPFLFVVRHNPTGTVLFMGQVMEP
SMILES,Inhibition Rate of PAI-1 Activity (%) (Compound Concentration 10 μM),Inhibition Rate of PAI-1 Activity (%) (Compound Concentration 25 μM),Inhibition Rate of PAI-1 Activity (%) (Compound Concentration 5 μM),Inhibition Rate of PAI-1 Activity (%) (Compound Concentration 0.5 μM),Inhibition Rate of PAI-1 Activity (%) (Compound Concentration 1 μM)
COc1ccc(CN(C(=O)C(=O)O)c2ccc(-c3ccc(OC(F)(F)F)cc3)cc2)cc1 [Compound 131],10,34,,,
CSc1ccc(-c2ccc(N(Cc3ccc(C(C)(C)C)cc3)C(=O)C(=O)O)cc2)cc1 [Compound 134],14,75,,,
CC(C)(C)c1ccc(COc2ccc(OCc3ccc(OC(F)(F)F)cc3)cc2/C=C/C(=O)O)cc1 [Compound 413],66,84,38,,
Cc1cc(-c2ccc(OC(F)(F)F)cc2)ccc1N(Cc1ccc(C(C)(C)C)cc1)C(=O)C(=O)O [Compound 146],73,90,33,,
Cc1ccc(CN(C(=O)C(=O)O)c2ccc(-c3ccc(OC(F)(F)F)cc3)cc2)cc1 [Compound 143],1,22,,,
CCCOc1ccc(N(CCCc2ccccc2)C(=O)C(=O)O)c(-c2ccc(OC(F)(F)F)cc2)c1 [Compound 232],82,96,52,,
O=C(O)C(=O)N(Cc1ccccc1)c1c(Cl)cc(-c2ccc(OC(F)(F)F)cc2)cc1Cl [Compound 180],36,71,19,,
COc1ccccc1COc1ccc(-c2ccc(OC(F)(F)F)cc2)cc1CCC(=O)O [Compound 23],7,47,,,
Cc1cc(-c2ccc(OC(F)(F)F)cc2)cc(/C=C/C(=O)O)c1OCc1ccc(C(C)(C)C)cc1 [Compound 83],46,56,27,,
CC(C)(C)c1ccc(COc2ccc(-c3ccc(OC(F)(F)F)cc3)cc2OCCCC(=O)O)cc1 [Compound 109],50,96,24,,
CCCCc1ccc(COc2ccc(-c3ccc(C(C)(C)C)cc3)cc2CCC(=O)O)cc1 [Compound 71],80,93,51,,
O=C(O)C(=O)N(Cc1c(Cl)cccc1Cl)c1ccc(-c2ccc(OC(F)(F)F)cc2)cc1 [Compound 171],44,81,22,,
CC(C)(C)c1ccc(Oc2ccc(-c3ccc(OC(F)(F)F)cc3)cc2CCC(=O)O)c(CCC(=O)O)c1 [Compound 542],,,67,0,14
CC(C)(C)c1ccc(CN(C(=O)C(=O)O)c2ccccc2Oc2ccc(OC(F)(F)F)cc2)cc1 [Compound 153],54,93,20,,
CC(C)(C)c1ccc(COc2ccc(-c3ccccc3)cc2/C=C/C(=O)O)cc1 [Compound 31],49,89,21,,
CCC(CC)Oc1ccc(N(Cc2ccc(C(C)(C)C)cc2)C(=O)C(=O)O)c(-c2ccc(OC(F)(F)F)cc2)c1 [Compound 207],90,,79,,
COc1ccc(-c2ccc(N(Cc3ccc(C(C)(C)C)cc3)C(=O)C(=O)O)cc2)cc1 [Compound 126],43,,16,,
Cc1cc(N(Cc2ccc(C(C)(C)C)cc2)C(=O)C(=O)O)ccc1-c1ccc(OC(F)(F)F)cc1 [Compound 184],86,85,59,,
Cc1cc(-c2ccc(OC(F)(F)F)cc2)cc(CCC(=O)O)c1OCc1ccc(C(C)(C)C)cc1 [Compound 84],62,95,28,,

SMILES,Inhibition Rate of PAI-1 Activity (%) (Compound Concentration 10 μM),Inhibition Rate of PAI-1 Activity (%) (Compound Concentration 25 μM),Inhibition Rate of PAI-1 Activity (%) (Compound Concentration 5 μM),Inhibition Rate of PAI-1 Activity (%) (Compound Concentration 0.5 μM),Inhibition Rate of PAI-1 Activity (%) (Compound Concentration 1 μM)
CSc1ccc(CN(C(=O)C(=O)O)c2ccc(-c3ccc(OC(F)(F)F)cc3)cc2)cc1 [Compound 160],26,68,14,,
O=C(O)CCc1cc(-c2ccccc2)ccc1OCc1ccc(OC(F)(F)F)cc1 [Compound 53],32,74,19,,
CC(C)Oc1ccc(N(CCCCc2ccccc2)C(=O)C(=O)O)cc1-c1ccc(OC(F)(F)F)cc1 [Compound 248],89,96,60,,
CN(C(=O)C(=O)O)c1ccc(OCc2ccc(OC(F)(F)F)cc2)c(OCc2ccc(OC(F)(F)F)cc2)c1 [Compound 623],41,87,22,,
O=C(O)C(=O)N(CCCCc1ccccc1)c1ccc(-c2ccc(OC(F)(F)F)cc2)cc1 [Compound 225],50,88,27,,
CC(C)(C)c1ccc(COc2c(/C=C/C(=O)O)cccc2-c2ccc(OC(F)(F)F)cc2)cc1 [Compound 87],81,96,44,,
Cc1cc(N(C)C)c(-c2ccc(OC(F)(F)F)cc2)cc1N(CCCCc1ccccc1)C(=O)C(=O)O [Compound 246],96,,79,,
CC(C)(C)c1ccc(COc2ccc(Nc3ccc(OC(F)(F)F)cc3)cc2CCC(=O)O)cc1 [Compound 412],46,92,22,,
CC(C)(C)c1ccc(CN(C(=O)C(=O)O)c2ccc(N3CCOCC3)c(-c3ccc(OC(F)(F)F)cc3)c2)cc1 [Compound 216],88,84,75,,
O=C(O)C(=O)N(Cc1ccc(Cl)cc1Cl)c1ccc(-c2ccc(OC(F)(F)F)cc2)cc1 [Compound 144],22,76,3,,
CC(C)(C)c1ccc(-c2ccc(OCc3ccc(OC(F)(F)F)cc3)c(/C=C/C(=O)O)c2)cc1 [Compound 51],69,94,32,,
CC(C)(C)c1ccc(CN(C(=O)C(=O)O)c2ccc(-c3ccc(C(F)(F)F)cc3)cc2)cc1 [Compound 145],35,74,7,,
CCCCCN(C(=O)C(=O)O)c1ccc(-c2ccc(OC(F)(F)F)cc2)cc1 [Compound 254],9,31,3,,
Cc1cc(-c2ccc(OC(F)(F)F)cc2)cc(C)c1N(Cc1ccc(C(C)(C)C)cc1)C(=O)C(=O)O [Compound 152],88,93,41,,
CC(C)(C)c1ccc(-c2ccc(Oc3ccc(-c4ccc(OC(F)(F)F)cc4)cc3/C=C/C(=O)O)c(CCC(=O)O)c2)cc1 [Compound 540],91,91,75,,
O=C(O)/C=C/c1cc(-c2ccc(OC(F)(F)F)cc2)ccc1OCc1ccccc1 [Compound 24],11,64,,,
CC(C)(C)c1ccc(COc2ccc(Oc3ccc(OC(F)(F)F)cc3)cc2C=CC(=O)O)cc1 [Compound 95],77,96,28,,
Cc1cc(-c2ccc(OC(F)(F)F)cc2)cc(N(Cc2ccc(C(C)(C)C)cc2)C(=O)C(=O)O)c1 [Compound 178],88,88,56,,
CCCOc1ccc(-c2ccc(OC(F)(F)F)cc2)cc1N(CCCc1ccccc1)C(=O)C(=O)O [Compound 234],83,96,59,,

# — patent publication US8633245B2, “PAI-1 inhibitor” (Institute of Medicinal Molecular Design, Inc., priority 2008, dated 2014)
